In patent US7307091B2, “Deuterated 3-piperidinopropiophenone and medicaments containing said compounds” (BDD Berolina Drug Development GmbH, priority 2001, dated 2007):

Experiments:
CYP2C19 = target: T1, CYP2C19 (Homo sapiens, UniProt P33261); assay: In-vitro biological degradation by cytochrome P450 enzymes: CYP2C19; format: in vitro ADME
T1 construct: expressed in transfected cells; host or cells: cell line named only by the CYP it carries

CYP2D6 = target: T2, CYP2D6 (Homo sapiens, UniProt P10635); assay: In-vitro biological degradation by cytochrome P450 enzymes: CYP2D6; format: in vitro ADME
T2 construct: expressed in transfected cells; host or cells: cell line named only by the CYP it carries
T2 sequence (P10635 whole entry): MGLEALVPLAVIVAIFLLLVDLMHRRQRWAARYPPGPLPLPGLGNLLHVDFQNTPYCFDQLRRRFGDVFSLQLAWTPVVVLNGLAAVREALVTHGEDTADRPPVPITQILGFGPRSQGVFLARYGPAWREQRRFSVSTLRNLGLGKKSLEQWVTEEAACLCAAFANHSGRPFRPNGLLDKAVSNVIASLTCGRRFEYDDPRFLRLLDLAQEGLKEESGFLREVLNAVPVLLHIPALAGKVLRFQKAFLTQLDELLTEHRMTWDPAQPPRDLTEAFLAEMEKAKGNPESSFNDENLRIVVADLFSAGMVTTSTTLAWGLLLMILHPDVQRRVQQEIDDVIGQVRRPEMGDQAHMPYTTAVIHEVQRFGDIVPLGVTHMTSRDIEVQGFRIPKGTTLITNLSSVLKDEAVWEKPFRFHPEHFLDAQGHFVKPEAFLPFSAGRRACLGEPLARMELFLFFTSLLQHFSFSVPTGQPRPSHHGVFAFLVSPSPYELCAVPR

CYP1A1 = target: T3, CYP1A1 (Homo sapiens, UniProt P04798); assay: In-vitro biological degradation by cytochrome P450 enzymes: CYP1A1; format: in vitro ADME; conditions: 37° C., pH 7.4, 3 mM NADPH, protein 0.5 mg/mL; FIG. 1
T3 construct: expressed in transfected cells; host or cells: cell line named only by the CYP it carries
T3 sequence (P04798 1-512): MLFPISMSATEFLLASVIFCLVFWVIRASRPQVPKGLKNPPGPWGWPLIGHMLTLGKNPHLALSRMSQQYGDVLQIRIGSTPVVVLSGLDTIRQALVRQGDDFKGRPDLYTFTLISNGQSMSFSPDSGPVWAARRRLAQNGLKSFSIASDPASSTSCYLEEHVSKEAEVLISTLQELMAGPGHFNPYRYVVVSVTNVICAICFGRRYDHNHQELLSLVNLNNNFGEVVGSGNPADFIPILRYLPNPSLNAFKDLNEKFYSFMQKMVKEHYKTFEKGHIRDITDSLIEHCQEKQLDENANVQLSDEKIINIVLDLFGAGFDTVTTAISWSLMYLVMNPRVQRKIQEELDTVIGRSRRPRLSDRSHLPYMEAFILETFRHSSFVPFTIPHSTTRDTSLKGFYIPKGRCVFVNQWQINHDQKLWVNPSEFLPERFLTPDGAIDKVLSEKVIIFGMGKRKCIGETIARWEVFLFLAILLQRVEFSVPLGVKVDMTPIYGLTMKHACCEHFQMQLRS

CYP1A2 = target: T4, CYP1A2 (Homo sapiens, UniProt P05177); assay: In-vitro biological degradation by cytochrome P450 enzymes: CYP1A2; format: in vitro ADME; conditions: 37° C., pH 7.4, 3 mM NADPH, protein 0.5 mg/mL; FIG. 1
T4 construct: expressed in transfected cells; host or cells: cell line named only by the CYP it carries
T4 sequence (P05177 1-516): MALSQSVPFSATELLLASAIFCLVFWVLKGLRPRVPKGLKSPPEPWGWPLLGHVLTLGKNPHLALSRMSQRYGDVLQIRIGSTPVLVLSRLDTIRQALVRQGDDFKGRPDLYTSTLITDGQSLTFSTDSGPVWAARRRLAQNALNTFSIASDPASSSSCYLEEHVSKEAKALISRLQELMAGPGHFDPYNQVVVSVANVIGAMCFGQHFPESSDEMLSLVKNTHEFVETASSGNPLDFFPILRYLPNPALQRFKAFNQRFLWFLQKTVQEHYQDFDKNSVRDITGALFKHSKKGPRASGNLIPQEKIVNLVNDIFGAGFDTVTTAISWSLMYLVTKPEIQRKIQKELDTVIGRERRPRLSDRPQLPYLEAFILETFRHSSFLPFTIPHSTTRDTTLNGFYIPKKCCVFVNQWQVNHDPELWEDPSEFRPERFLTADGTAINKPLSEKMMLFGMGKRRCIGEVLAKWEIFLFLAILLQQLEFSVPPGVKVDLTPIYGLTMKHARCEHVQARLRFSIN

CYP2C8 = target: T5, CYP2C8 (Homo sapiens, UniProt P10632); assay: In-vitro biological degradation by cytochrome P450 enzymes: CYP2C8; format: in vitro ADME; conditions: 37° C., pH 7.4, 3 mM NADPH, protein 0.5 mg/mL; FIG. 1
T5 construct: expressed in transfected cells; host or cells: cell line named only by the CYP it carries
T5 sequence (P10632 1-490): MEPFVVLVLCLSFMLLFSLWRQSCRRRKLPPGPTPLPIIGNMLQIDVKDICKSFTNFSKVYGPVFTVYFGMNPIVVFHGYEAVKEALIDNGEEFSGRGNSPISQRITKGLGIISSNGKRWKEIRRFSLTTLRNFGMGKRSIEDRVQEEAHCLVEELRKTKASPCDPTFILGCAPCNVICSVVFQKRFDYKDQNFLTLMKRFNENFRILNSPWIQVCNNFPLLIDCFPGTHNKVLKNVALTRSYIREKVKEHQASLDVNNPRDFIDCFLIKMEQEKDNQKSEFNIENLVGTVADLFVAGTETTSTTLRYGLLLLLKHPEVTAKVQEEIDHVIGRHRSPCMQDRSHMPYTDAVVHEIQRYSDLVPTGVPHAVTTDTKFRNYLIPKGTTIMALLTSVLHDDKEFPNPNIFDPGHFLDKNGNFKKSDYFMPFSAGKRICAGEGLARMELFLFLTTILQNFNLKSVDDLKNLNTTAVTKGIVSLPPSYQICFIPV

CYP2E1 = target: T6, CYP2E1 (Homo sapiens, UniProt P05181); assay: In-vitro biological degradation by cytochrome P450 enzymes: CYP2E1; format: in vitro ADME; conditions: 37° C., pH 7.4, 3 mM NADPH, protein 0.5 mg/mL; FIG. 1
T6 construct: expressed in transfected cells; host or cells: cell line named only by the CYP it carries
T6 sequence (P05181 whole entry): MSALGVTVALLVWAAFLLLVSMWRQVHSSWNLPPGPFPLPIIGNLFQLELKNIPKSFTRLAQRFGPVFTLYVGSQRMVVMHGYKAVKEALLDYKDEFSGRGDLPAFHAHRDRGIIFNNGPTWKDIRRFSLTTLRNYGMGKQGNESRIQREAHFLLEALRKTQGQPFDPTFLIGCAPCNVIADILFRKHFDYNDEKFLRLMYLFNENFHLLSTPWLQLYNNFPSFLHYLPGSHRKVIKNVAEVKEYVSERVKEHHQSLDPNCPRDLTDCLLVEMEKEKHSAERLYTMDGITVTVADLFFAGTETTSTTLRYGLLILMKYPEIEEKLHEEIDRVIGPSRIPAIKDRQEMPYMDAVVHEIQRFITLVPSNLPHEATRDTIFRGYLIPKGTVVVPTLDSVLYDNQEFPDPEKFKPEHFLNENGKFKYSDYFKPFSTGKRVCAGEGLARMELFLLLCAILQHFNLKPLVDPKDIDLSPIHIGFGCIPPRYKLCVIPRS

CYP3A4 = target: T7, CYP3A4 (Homo sapiens, UniProt P08684); assay: In-vitro biological degradation by cytochrome P450 enzymes: CYP3A4; format: in vitro ADME; conditions: 37° C., pH 7.4, 3 mM NADPH, protein 0.5 mg/mL; FIG. 1
T7 construct: expressed in transfected cells; host or cells: cell line named only by the CYP it carries
T7 sequence (P08684 whole entry): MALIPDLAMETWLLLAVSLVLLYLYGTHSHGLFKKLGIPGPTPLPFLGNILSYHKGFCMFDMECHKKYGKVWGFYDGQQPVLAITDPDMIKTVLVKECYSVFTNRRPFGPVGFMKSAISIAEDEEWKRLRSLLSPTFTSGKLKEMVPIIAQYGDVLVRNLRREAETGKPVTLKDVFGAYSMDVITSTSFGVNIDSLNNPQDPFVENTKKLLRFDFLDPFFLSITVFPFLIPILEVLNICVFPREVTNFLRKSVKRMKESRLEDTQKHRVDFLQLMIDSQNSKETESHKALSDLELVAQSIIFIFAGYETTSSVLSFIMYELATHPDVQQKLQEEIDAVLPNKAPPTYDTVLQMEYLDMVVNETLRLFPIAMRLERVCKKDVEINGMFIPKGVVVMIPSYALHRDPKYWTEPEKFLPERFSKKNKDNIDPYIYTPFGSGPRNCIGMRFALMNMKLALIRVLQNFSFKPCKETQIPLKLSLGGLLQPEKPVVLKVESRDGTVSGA

[1] = strong first-pass effect; background statement; cited from earlier work
[2] = 37° C., pH 7.4, 3 mM NADPH, protein 0.5 mg/mL, LC/MS/MS, FIG. 1
[3] = primary metabolites formed by hydroxylation, FIG. 2
[4] = relative to tolperisone, FIG. 3

T1 sequence (P33261 whole entry): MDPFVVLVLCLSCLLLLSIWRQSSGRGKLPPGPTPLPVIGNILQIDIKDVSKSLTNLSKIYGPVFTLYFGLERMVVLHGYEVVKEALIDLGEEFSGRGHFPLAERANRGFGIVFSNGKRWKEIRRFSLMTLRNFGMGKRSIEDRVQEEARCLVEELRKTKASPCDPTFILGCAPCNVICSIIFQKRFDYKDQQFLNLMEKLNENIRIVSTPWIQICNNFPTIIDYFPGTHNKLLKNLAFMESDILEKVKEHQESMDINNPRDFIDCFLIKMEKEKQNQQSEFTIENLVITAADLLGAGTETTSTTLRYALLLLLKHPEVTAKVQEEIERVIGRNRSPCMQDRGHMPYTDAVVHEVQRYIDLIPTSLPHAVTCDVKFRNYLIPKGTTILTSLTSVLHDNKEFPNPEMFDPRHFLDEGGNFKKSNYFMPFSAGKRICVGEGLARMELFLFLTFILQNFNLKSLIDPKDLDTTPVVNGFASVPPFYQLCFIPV

| enzymatic degradation (decrease in tolperisone concentration over time) by CYP2C19 (CYP2C19; [2]) | enzymatic degradation (decrease in tolperisone concentration over time) by CYP2D6 (CYP2D6; [2]) | contribution to biological degradation by CYP1A1 (CYP1A1) | contribution to biological degradation by CYP1A2 (CYP1A2) | contribution to biological degradation by CYP2C8 (CYP2C8) | contribution to biological degradation by CYP2E1 (CYP2E1) | contribution to biological degradation by CYP3A4 (CYP3A4) | factor by which enzymatic hydroxylation by CYP2C19 is retarded in comparison to tolperisone (CYP2C19; [4]) | factor by which enzymatic hydroxylation by CYP2D6 is retarded in comparison to tolperisone (CYP2D6; [4]) | SMILES | formation of hydroxy metabolites by CYP2C19 (CYP2C19; [3]) | formation of hydroxy metabolites by CYP2D6 (CYP2D6; [3]) | fraction of the administered dose found unchanged in the blood [1] |
| --- | --- | --- | --- | --- | --- | --- | --- | --- | --- | --- | --- | --- |
| transformed above all | transformed above all | contribute at most insignificantly | contribute at most insignificantly | contribute at most insignificantly | contribute at most insignificantly | contribute at most insignificantly |  |  | Cc1ccc(C(=O)C(C)CN2CCCCC2)cc1 (stereo not drawn) [tolperisone] | to the same extent as the substrate is degraded | to the same extent as the substrate is degraded | one-fifth |
|  |  |  |  |  |  |  | 10 | 10 | [2H]c1c([2H])c(C([2H])([2H])[2H])c([2H])c([2H])c1C(=O)C(C)CN1CCCCC1 (stereo not drawn) [I, 1-[4-(trideuteromethyl)tetradeuterophenyl]-2-methyl-3-piperidin-1-yl-1-propanone] |  |  |  |
